Here are results for 56 molecules from ChEMBL document CHEMBL1150375, “Novel inhibitors of the v-raf murine sarcoma viral oncogene homologue B1 (BRAF) based on a 2,6-disubstituted pyrazine scaffold” (J Med Chem, 2008).

Chain of RAF proto-oncogene serine/threonine-protein kinase (P04049 whole entry): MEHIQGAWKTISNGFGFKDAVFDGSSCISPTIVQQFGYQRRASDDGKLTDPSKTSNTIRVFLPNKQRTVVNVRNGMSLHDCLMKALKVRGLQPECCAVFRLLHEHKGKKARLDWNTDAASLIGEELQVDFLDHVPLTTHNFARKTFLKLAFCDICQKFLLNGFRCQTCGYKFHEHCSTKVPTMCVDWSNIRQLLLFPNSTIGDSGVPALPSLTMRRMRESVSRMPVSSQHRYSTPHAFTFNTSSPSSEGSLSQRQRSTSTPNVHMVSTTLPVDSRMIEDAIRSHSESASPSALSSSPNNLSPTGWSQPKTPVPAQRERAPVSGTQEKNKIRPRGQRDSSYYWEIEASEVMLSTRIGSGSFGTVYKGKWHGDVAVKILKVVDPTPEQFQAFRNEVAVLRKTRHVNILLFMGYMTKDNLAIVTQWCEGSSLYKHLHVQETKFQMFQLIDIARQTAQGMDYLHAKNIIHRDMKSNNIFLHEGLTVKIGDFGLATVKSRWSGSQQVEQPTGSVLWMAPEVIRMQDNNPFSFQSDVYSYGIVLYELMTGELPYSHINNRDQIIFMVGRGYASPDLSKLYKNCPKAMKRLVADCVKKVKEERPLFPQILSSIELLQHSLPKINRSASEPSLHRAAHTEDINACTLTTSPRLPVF
Chain of Serine/threonine-protein kinase B-raf (P15056 2-766 V600E limits assumed): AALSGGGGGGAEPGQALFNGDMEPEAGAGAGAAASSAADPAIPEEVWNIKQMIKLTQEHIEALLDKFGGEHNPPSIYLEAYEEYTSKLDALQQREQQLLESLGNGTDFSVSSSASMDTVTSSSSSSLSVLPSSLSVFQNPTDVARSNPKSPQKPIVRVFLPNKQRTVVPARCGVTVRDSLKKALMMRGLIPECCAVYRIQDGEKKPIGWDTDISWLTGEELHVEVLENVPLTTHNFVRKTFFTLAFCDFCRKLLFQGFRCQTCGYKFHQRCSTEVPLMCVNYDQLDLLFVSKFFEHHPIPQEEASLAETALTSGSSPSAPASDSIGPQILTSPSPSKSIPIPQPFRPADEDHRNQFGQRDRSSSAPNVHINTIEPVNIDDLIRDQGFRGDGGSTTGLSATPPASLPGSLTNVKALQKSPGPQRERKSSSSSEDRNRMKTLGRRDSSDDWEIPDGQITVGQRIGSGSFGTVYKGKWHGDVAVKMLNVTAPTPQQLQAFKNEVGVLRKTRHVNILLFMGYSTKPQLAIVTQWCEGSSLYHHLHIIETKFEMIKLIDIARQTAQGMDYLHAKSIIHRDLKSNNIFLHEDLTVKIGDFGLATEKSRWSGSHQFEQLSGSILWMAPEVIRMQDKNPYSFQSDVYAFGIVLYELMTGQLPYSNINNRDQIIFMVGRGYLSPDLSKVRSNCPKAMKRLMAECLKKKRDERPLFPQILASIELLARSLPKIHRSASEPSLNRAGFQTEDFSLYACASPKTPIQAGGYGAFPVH

The first assay concerns the target Serine/threonine-protein kinase B-raf (Homo sapiens, UniProt P15056, V600E).
Description: Inhibition of human BRAF V600E mutant expressed in SF9 cells
One may read the IC50 as the concentration that gives 50% inhibition. Take `COc1cc(Nc2cncc(Oc3ccc4c(c3)C(=O)CC4)n2)cc(OC)c1OC`: the midpoint of inhibition, the IC50, lay at 22 µM.
`COc1cc(Nc2cncc(Oc3ccc4c(c3)CCC/C4=N\O)n2)cc(OC)c1OC`: inhibition was half-maximal at 92 µM (IC50).
Still for that read-out and setting: next, `COc1cc(Nc2cncc(Oc3cccnc3)n2)cc(OC)c1OC`: 45 µM; `COc1cc(Nc2cncc(Oc3ccccc3-c3ccccc3)n2)cc(OC)c1OC`: 10 µM.
`COc1cc(Nc2nc(-c3cccc(NC(C)=O)c3)cnc2NC(C)=O)cc(OC)c1OC`: the IC50 was > 100 µM.
Take `COc1cc(Nc2cncc(-c3ccc(CO)cc3)n2)cc(OC)c1OC`: the IC50 was 26 µM. This counts as double-digit micromolar.
Still for that read-out and setting: next, `COc1cc(Nc2cncc(Oc3cccc4c(NC(C)=O)cccc34)n2)cc(OC)c1OC`: 0.41 µM.
On the same count and under the same terms, next, `COc1cc(Nc2cncc(-c3cccc(NC(C)=O)c3)c2)cc(OC)c1OC`: 26 µM.
`COc1cc(Nc2cncc(-c3ccc(O)cc3)n2)cc(OC)c1OC` came in with an IC50 of 18 µM. This IC50 and that of the molecule before are within 1.5-fold of each other.
In turn, `COc1cc(Nc2cncc(Oc3ccnc4ccccc34)n2)cc(OC)c1OC` registered an IC50 of 1.5 µM.
In the case of `COc1cc(Nc2cncc(Oc3cccc(/C(C)=N/O)c3)n2)cc(OC)c1OC`, the IC50 was determined as 11 µM.
The same measure, in the same setting: next, `COc1cc(Nc2cncc(Oc3ccc(C(C)=O)cc3)n2)cc(OC)c1OC`: 34 µM; `COc1cc(Nc2cncc(Nc3ccc(F)cc3)n2)cc(OC)c1OC`: 19 µM.
The same measure, in the same setting: to `COc1cc(Nc2cncc(Oc3ccc(/C(C)=N/O)cc3)n2)cc(OC)c1OC` belongs 26 µM.
On the same count and under the same terms, to `COc1cc(Nc2cncc(Oc3ccc4c(c3)CCC4=O)n2)cc(OC)c1OC` belongs 70 µM; to `COc1cc(Nc2cncc(-c3ccc(C(N)=O)cc3)n2)cc(OC)c1OC`, 1.12 µM; to `CC(=O)Nc1ccc(Oc2cncc(Nc3cccc(-c4cnco4)c3)n2)c2ccccc12`, 0.31 µM.
`COc1cc(Nc2cncc(-c3cccc(C#N)c3)n2)cc(OC)c1OC` yielded an IC50 of 9.8 µM. Against the preceding molecule, the IC50 is about 32-fold higher.
On the same count and under the same terms, next, `COc1cc(Nc2cncc(Nc3ccncc3)n2)cc(OC)c1OC`: 4.7 µM; `CC(=O)Nc1cccc2c(Oc3cncc(Nc4cccc(-c5cnco5)c4)n3)cccc12`: 0.65 µM.
On to `COc1cc(Nc2cncc(Oc3cccc(F)c3)n2)cc(OC)c1OC`, for which the IC50 was 56 µM.
The molecule `COc1cc(Nc2cncc(Nc3ccc(O)cc3)n2)cc(OC)c1OC` registered an IC50 of 4.9 µM.
Turning to `COc1cc(Nc2cncc(Oc3ccc4ccccc4c3)n2)cc(OC)c1OC`, the IC50 is > 100 µM.
In turn, `COc1cc(Nc2cncc(Oc3ccc(NC(C)=O)cc3)n2)cc(OC)c1OC` returned an IC50 of 5.5 µM.
The same measure, in the same setting: to `COc1cc(Nc2cncc(-c3cccc(O)c3)n2)cc(OC)c1OC` belongs 4 µM; to `COc1cc(Nc2cncc(Oc3ccccc3)n2)cc(OC)c1OC`, 31 µM; to `COc1cc(Nc2cncc(Nc3ccccc3)n2)cc(OC)c1OC`, 16 µM.
As for `COc1cc(Nc2cncc(Nc3ccc(NC(C)=O)cc3)n2)cc(OC)c1OC`, the midpoint of inhibition, the IC50, lay at 16 µM.
Molecule `COc1cc(Nc2cncc(Nc3cccc(F)c3)n2)cc(OC)c1OC` came in with an IC50 of 12 µM.
On the same count and under the same terms, next, `COc1cc(Nc2cncc(Oc3cccc4c3CCCC4=O)n2)cc(OC)c1OC`: 29 µM; `COc1cc(Nc2cncc(Oc3ccc4c(c3)OC(=O)CC4)n2)cc(OC)c1OC`: 44 µM; `COc1cc(Nc2cncc(Sc3cccc4ccccc34)n2)cc(OC)c1OC`: 9.8 µM.
The same measure, in the same setting: next, `COc1cc(Nc2cncc(Oc3cccc(Cl)c3)n2)cc(OC)c1OC`: 36 µM; `COc1cc(Nc2cncc(Oc3ccccc3F)n2)cc(OC)c1OC`: 45 µM; `CCOC(=O)c1cccc(-c2cncc(Nc3cc(OC)c(OC)c(OC)c3)n2)c1`: 14 µM.
On the same count and under the same terms, to `COc1cc(Nc2cncc(-c3cccc(NC(C)=O)c3)n2)cc(OC)c1OC` belongs 3.5 µM; to `COc1cc(Nc2cncc(Oc3cccc(C(C)=O)c3)n2)cc(OC)c1OC`, 19 µM; to `COc1cc(Nc2cncc(Oc3ccc4ncccc4c3)n2)cc(OC)c1OC`, 29 µM.
With `COc1cc(Nc2cncc(Oc3cccc4c3CC/C4=N\O)n2)cc(OC)c1OC`, the midpoint of inhibition, the IC50, lay at 1.4 µM.
`COc1cc(Nc2cncc(-c3ccc(NC(=O)Nc4ccccc4)cc3)n2)cc(OC)c1OC` yielded an IC50 of 1.16 µM.
Molecule `COc1cc(Nc2cncc(-c3ccc(C=O)cc3)n2)cc(OC)c1OC` registered an IC50 of 3 µM.
Same read-out and setting: to `CC(=O)Nc1cccc2c(Oc3cncc(Nc4ccc5c(c4)C(=O)OC5)n3)cccc12` belongs 2.5 µM; to `COc1cc(Nc2cncc(Oc3ccc4c(c3)CCCC4=O)n2)cc(OC)c1OC`, 76 µM; to `COc1cc(Nc2cncc(Nc3cccc(NC(C)=O)c3)n2)cc(OC)c1OC`, 14 µM.
Same read-out and setting: to `COc1cc(Nc2cncc(-c3cccnc3)n2)cc(OC)c1OC` belongs 22 µM; to `COc1cc(Nc2cncc(Oc3cccc4[nH]ccc34)n2)cc(OC)c1OC`, 7.4 µM.
The molecule `COc1cc(Nc2cncc(Oc3cccc4ncccc34)n2)cc(OC)c1OC` registered an IC50 of 10 µM.
`COc1cc(Nc2cncc(Oc3cccc4cnccc34)n2)cc(OC)c1OC` gave an IC50 of 3.8 µM.
For the molecule `COc1cc(Nc2cncc(Oc3cccc4ccccc34)n2)cc(OC)c1OC`, the 50% inhibitory concentration (IC50) is 1.2 µM.
On the same count and under the same terms, next, `COc1cc(Nc2cncc(Oc3cccc4c3CCCC4)n2)cc(OC)c1OC`: 18 µM; `COc1cc(Nc2cncc(Oc3ccc(NC(C)=O)c4ccccc34)n2)cc(OC)c1OC`: 0.56 µM; `COc1cc(Nc2cncc(Oc3cccc4c3CCC4=O)n2)cc(OC)c1OC`: 18 µM.
On the same count and under the same terms, next, `COc1cc(Nc2cncc(-c3ccncc3)n2)cc(OC)c1OC`: 2.9 µM; `COc1cc(Nc2cncc(Oc3ccncc3)n2)cc(OC)c1OC`: 16 µM; `COc1cc(Nc2cncc(Oc3ccc4c(c3)/C(=N/O)CC4)n2)cc(OC)c1OC`: 86 µM.
On the same count and under the same terms, next, `COc1cc(Nc2cncc(Oc3cccc(NC(C)=O)c3)n2)cc(OC)c1OC`: 13 µM.

The next assay addresses RAF proto-oncogene serine/threonine-protein kinase (Homo sapiens, UniProt P04049). As to the kind of experiment: Inhibition of CRAF.
Molecule `COc1cc(Nc2cncc(-c3ccc(C(N)=O)cc3)n2)cc(OC)c1OC` showed an IC50 of 38.2 µM.
Still for that read-out and setting: next, `CC(=O)Nc1ccc(Oc2cncc(Nc3cccc(-c4cnco4)c3)n2)c2ccccc12`: 1.52 µM; `CC(=O)Nc1cccc2c(Oc3cncc(Nc4cccc(-c5cnco5)c4)n3)cccc12`: 6.96 µM; `COc1cc(Nc2cncc(-c3ccc(NC(=O)Nc4ccccc4)cc3)n2)cc(OC)c1OC`: > 100 µM.
The same measure, in the same setting: next, `COc1cc(Nc2cncc(Oc3ccc(NC(C)=O)c4ccccc34)n2)cc(OC)c1OC`: 20.3 µM.

Test system in a further assay: not listed separately
As to the kind of experiment: Selectivity ratio of IC50 for CRAF to IC50 for human BRAF V600E mutant.
Regarding `COc1cc(Nc2cncc(-c3ccc(C(N)=O)cc3)n2)cc(OC)c1OC`, the Ratio IC50 came to 34.
Same read-out and setting: next, `CC(=O)Nc1ccc(Oc2cncc(Nc3cccc(-c4cnco4)c3)n2)c2ccccc12`: 5; `CC(=O)Nc1cccc2c(Oc3cncc(Nc4cccc(-c5cnco5)c4)n3)cccc12`: 11; `COc1cc(Nc2cncc(-c3ccc(NC(=O)Nc4ccccc4)cc3)n2)cc(OC)c1OC`: > 86.
On the same count and under the same terms, next, `COc1cc(Nc2cncc(Oc3ccc(NC(C)=O)c4ccccc34)n2)cc(OC)c1OC`: 36.
